# Patent US20020137929A1, “1 - (3-heterocyclylphenyl) isothiourea, -isourea, -guanidine and -amidine herbicidal agents” (Intellectual Property Department, BASF Aktiengesellschaft, priority 1998, published 2002)
# How the values were obtained:
# [1] = system: ABUTH (Velvetleaf); assay: Postemergence herbicidal evaluation; type: in vivo, Abutilon theophrasti; details: postemergence
# Procedure, shortened: (§1)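 ~2-wk seedlings; postemergence spray, 40 psi; vehicle 1:1 acetone:water + 0.5% Tween 20; rate ≈0.0156–0.500 kg/ha; greenhouse hold; scored 4–5 wk after treatment, 0–9 scale vs control; repeat tests averaged.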
# [2] = system: AMBEL (Ragweed, Common); assay: Postemergence herbicidal evaluation; type: in vivo, Ambrosia artemisifolia; details: postemergence
# Procedure, shortened: as §1
# [3] = system: ECHCG (Barnyardgrass); assay: Postemergence herbicidal evaluation; type: in vivo, Echinochloa crus-galli; details: postemergence
# Procedure, shortened: as §1
# [4] = system: SETVI (Foxtail, Green); assay: Postemergence herbicidal evaluation; type: in vivo, Setaria viridis; details: postemergence
# Procedure, shortened: as §1
# [5] = system: GLXMAW (Soybean, Williams); assay: Postemergence herbicidal evaluation; type: in vivo, Glycine max, (L.) Merr. cv Williams; details: postemergence
# Procedure, shortened: as §1
# [6] = system: TRZAWR (Wheat, Winter, cv Riband); assay: Postemergence herbicidal evaluation; type: in vivo, Triticum aestivum; details: postemergence
# Procedure, shortened: as §1
# [7] = system: CASOB (Sicklepod); assay: Preemergence herbicidal evaluation; type: in vivo, Cassia obtusifolia; details: rated 4-5 weeks after treatment
# Procedure, shortened: (§2)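 Herbicidal effect scored visually, 0-9, at 4 to 5 weeks against a control; compound applied preemergence by aqueous acetone spray to seeded soil at about 0.0156 to 0.500 kg/ha.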
# [8] = system: CHEAL (Lambsquarters, Common); assay: Preemergence herbicidal evaluation; type: in vivo, Chenopodium album; details: rated 4-5 weeks after treatment
# Procedure, shortened: as §2
# [9] = system: GALAP (Galium); assay: Preemergence herbicidal evaluation; type: in vivo, Galium aparine; details: rated 4-5 weeks after treatment
# Procedure, shortened: as §2
# [10] = system: ECHCG (Barnyardgrass); assay: Preemergence herbicidal evaluation; type: in vivo, Echinochloa crus-galli; details: rated 4-5 weeks after treatment
# Procedure, shortened: as §2
# [11] = system: ZEAMX (Corn, Field); assay: Preemergence herbicidal evaluation; type: in vivo, Zea mays; details: rated 4-5 weeks after treatment
# Procedure, shortened: as §2
# [12] = system: ECHORC (Watergrass (Calif.)); assay: Postemergence weed control under flooded paddy conditions; type: in vivo, Echinochloa oryzoides; details: postemergence weeds, 3-4 weeks after treatment
# From the text: Results of herbicide evaluation are expressed on a rating scale (0-9). The scale is based upon a visual observation of plant stand, vigor, malformation, size, chlorosis and overall plant appearance as compared with a control.
# Plastic containers containing weeds which are 3 to 5 cm tall and rice seedlings at the 1.5 to 2.5 leaf stage are flooded with water. The water is maintained at 1.5 to 3 cm above the soil surface for the duration of the experiment. Test compounds are applied as aqueous/ acetone mixtures 50/50 v/v directly into the flood water to provide the equivalent of about 0.0313 to 0.500 kg/ha of active ingredient. The treated containers are placed on greenhouse benches and cared for in accordance with conventional greenhouse procedures. Three to four weeks after treatment, the test is terminated and each container is examined and herbicidal effect rated according to the rating system provided in Example 37. The compounds evaluated are reported by compound number given in Example 37.
smiles,measurement,setting,value
"CN1C(=O)CSC1=Nc1cc(N2C(=O)C3=C(CCCC3)C2=O)c(F)cc1Cl [Compound 1, N-{4-chloro-2-fluoro-5-[(3-methyl-4-oxo-2-thiazolidinylidene)amino]phenyl}-1-cyclohexene-1,2-dicarboximide]",ABUTH herbicidal rating,[1]; rate 0.0157 kg/ha,5.0
same,ABUTH herbicidal rating,[1]; rate 0.0313 kg/ha,8.0
same,ABUTH herbicidal rating,[1]; rate 0.0625 kg/ha,8.0
same,ABUTH herbicidal rating,[1]; rate 0.1250 kg/ha,9.0
same,ABUTH herbicidal rating,[1]; rate 0.2500 kg/ha,9.0
same,ABUTH herbicidal rating,[1]; rate 0.5000 kg/ha,9.0
same,AMBEL herbicidal rating,[2]; rate 0.0157 kg/ha,2.0
same,AMBEL herbicidal rating,[2]; rate 0.0313 kg/ha,3.0
same,AMBEL herbicidal rating,[2]; rate 0.0625 kg/ha,3.0
same,AMBEL herbicidal rating,[2]; rate 0.1250 kg/ha,5.0
same,AMBEL herbicidal rating,[2]; rate 0.2500 kg/ha,7.0
same,AMBEL herbicidal rating,[2]; rate 0.5000 kg/ha,8.0
same,ECHCG herbicidal rating,[3]; rate 0.0157 kg/ha,0.0
same,ECHCG herbicidal rating,[3]; rate 0.0313 kg/ha,0.0
same,ECHCG herbicidal rating,[3]; rate 0.0625 kg/ha,2.0
same,ECHCG herbicidal rating,[3]; rate 0.1250 kg/ha,2.0
same,ECHCG herbicidal rating,[3]; rate 0.2500 kg/ha,5.0
same,ECHCG herbicidal rating,[3]; rate 0.5000 kg/ha,7.0
same,SETVI herbicidal rating,[4]; rate 0.0157 kg/ha,1.0
same,SETVI herbicidal rating,[4]; rate 0.0313 kg/ha,3.0
same,SETVI herbicidal rating,[4]; rate 0.0625 kg/ha,4.0
same,SETVI herbicidal rating,[4]; rate 0.1250 kg/ha,7.0
same,SETVI herbicidal rating,[4]; rate 0.2500 kg/ha,7.0
same,SETVI herbicidal rating,[4]; rate 0.5000 kg/ha,9.0
same,GLXMAW herbicidal rating,[5]; rate 0.0157 kg/ha,4.0
same,GLXMAW herbicidal rating,[5]; rate 0.0313 kg/ha,4.5
same,GLXMAW herbicidal rating,[5]; rate 0.0625 kg/ha,4.5
same,GLXMAW herbicidal rating,[5]; rate 0.1250 kg/ha,5.0
same,GLXMAW herbicidal rating,[5]; rate 0.2500 kg/ha,5.5
same,GLXMAW herbicidal rating,[5]; rate 0.5000 kg/ha,6.0
same,TRZAWR herbicidal rating,[6]; rate 0.0157 kg/ha,2.5
same,TRZAWR herbicidal rating,[6]; rate 0.0313 kg/ha,3.5
same,TRZAWR herbicidal rating,[6]; rate 0.0625 kg/ha,4.0
same,TRZAWR herbicidal rating,[6]; rate 0.1250 kg/ha,5.0
same,TRZAWR herbicidal rating,[6]; rate 0.2500 kg/ha,5.5
same,TRZAWR herbicidal rating,[6]; rate 0.5000 kg/ha,6.0
same,CASOB preemergence herbicidal rating,[7]; rate 0.0313 kg/ha,0.0
same,CASOB preemergence herbicidal rating,[7]; rate 0.0625 kg/ha,3.0
same,CASOB preemergence herbicidal rating,[7]; rate 0.1250 kg/ha,2.0
same,CASOB preemergence herbicidal rating,[7]; rate 0.2500 kg/ha,6.0
same,CASOB preemergence herbicidal rating,[7]; rate 0.5000 kg/ha,6.7
same,CHEAL preemergence herbicidal rating,[8]; rate 0.0313 kg/ha,9.0
same,CHEAL preemergence herbicidal rating,[8]; rate 0.0625 kg/ha,9.0
same,CHEAL preemergence herbicidal rating,[8]; rate 0.1250 kg/ha,9.0
same,CHEAL preemergence herbicidal rating,[8]; rate 0.2500 kg/ha,9.0
same,CHEAL preemergence herbicidal rating,[8]; rate 0.5000 kg/ha,9.0
same,GALAP preemergence herbicidal rating,[9]; rate 0.0313 kg/ha,9.0
same,GALAP preemergence herbicidal rating,[9]; rate 0.0625 kg/ha,7.0
same,GALAP preemergence herbicidal rating,[9]; rate 0.1250 kg/ha,9.0
same,GALAP preemergence herbicidal rating,[9]; rate 0.2500 kg/ha,9.0
same,GALAP preemergence herbicidal rating,[9]; rate 0.5000 kg/ha,8.0
same,ECHCG preemergence herbicidal rating,[10]; rate 0.0313 kg/ha,2.0
same,ECHCG preemergence herbicidal rating,[10]; rate 0.0625 kg/ha,5.0
same,ECHCG preemergence herbicidal rating,[10]; rate 0.1250 kg/ha,6.0
same,ECHCG preemergence herbicidal rating,[10]; rate 0.2500 kg/ha,5.0
same,ECHCG preemergence herbicidal rating,[10]; rate 0.5000 kg/ha,7.7
same,ZEAMX preemergence herbicidal rating,[11]; rate 0.0313 kg/ha,0.0
same,ZEAMX preemergence herbicidal rating,[11]; rate 0.0625 kg/ha,0.0
same,ZEAMX preemergence herbicidal rating,[11]; rate 0.1250 kg/ha,0.0
same,ZEAMX preemergence herbicidal rating,[11]; rate 0.2500 kg/ha,0.0
same,ZEAMX preemergence herbicidal rating,[11]; rate 0.5000 kg/ha,2.0
same,Herbicidal rating ECHORC,[12]; rate 0.0313 kg/ha,1.0
same,Herbicidal rating ECHORC,[12]; rate 0.0625 kg/ha,2.0
same,Herbicidal rating ECHORC,[12]; rate 0.1250 kg/ha,3.0
same,Herbicidal rating ECHORC,[12]; rate 0.2500 kg/ha,3.5
same,Herbicidal rating ECHORC,[12]; rate 0.5000 kg/ha,5.5
